This assay deals with Urease (Canavalia ensiformis, UniProt P07374). The assay is described as follows: Inhibition of jack bean urease using urea as substrate pretreated for 15 mins followed by substrate addition by phenol red based spectrophotometric method.

The structures appear in SMILES notation.

The values below come from ChEMBL document CHEMBL4033708, “Synthesis and molecular docking study of some 5,6-dichloro-2-cyclopropyl-1H-benzimidazole derivatives bearing triazole, oxadiazole, and imine functionalities as potent inhibitors of urease” (Bioorg Med Chem Lett, 2017).

Chain of Urease (P07374 whole entry): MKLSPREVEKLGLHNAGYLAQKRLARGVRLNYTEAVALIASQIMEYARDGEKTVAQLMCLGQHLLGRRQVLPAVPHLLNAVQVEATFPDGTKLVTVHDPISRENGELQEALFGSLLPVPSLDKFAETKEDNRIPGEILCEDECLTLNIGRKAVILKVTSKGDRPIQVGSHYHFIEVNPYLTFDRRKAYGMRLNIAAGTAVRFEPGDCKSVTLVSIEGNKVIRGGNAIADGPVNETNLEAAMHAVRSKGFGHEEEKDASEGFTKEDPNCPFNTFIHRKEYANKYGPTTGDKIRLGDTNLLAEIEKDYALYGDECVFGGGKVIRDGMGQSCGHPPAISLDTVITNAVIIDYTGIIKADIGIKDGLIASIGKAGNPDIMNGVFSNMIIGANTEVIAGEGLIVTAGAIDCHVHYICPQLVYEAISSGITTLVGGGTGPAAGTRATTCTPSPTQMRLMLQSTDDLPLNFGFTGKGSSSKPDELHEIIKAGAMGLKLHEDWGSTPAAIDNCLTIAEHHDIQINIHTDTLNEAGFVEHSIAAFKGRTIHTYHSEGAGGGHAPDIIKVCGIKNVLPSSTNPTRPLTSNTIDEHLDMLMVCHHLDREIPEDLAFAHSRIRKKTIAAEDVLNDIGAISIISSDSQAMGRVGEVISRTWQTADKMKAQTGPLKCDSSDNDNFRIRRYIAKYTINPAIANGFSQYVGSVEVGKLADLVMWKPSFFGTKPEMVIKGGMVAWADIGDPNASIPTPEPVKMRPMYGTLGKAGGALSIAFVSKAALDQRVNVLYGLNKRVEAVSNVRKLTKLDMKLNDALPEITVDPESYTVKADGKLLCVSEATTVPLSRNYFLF

For `NNC(=O)Cn1c(C2CC2)nc2cc(Cl)c(Cl)cc21`, the half-maximal inhibitory concentration (IC50) stood at 1.92 µM.

For `O=C(Cn1c(C2CC2)nc2cc(Cl)c(Cl)cc21)N/N=C/c1ccccc1O`, the IC50 was 0.22 µM.

Regarding `Clc1cc2nc(C3CC3)[nH]c2cc1Cl`, the IC50 is 0.17 µM. As for `O=C(Cn1c(C2CC2)nc2cc(Cl)c(Cl)cc21)N/N=C/c1cc(Br)ccc1O`, the IC50 is 0.14 µM.

Take `Sc1nnc(Cn2c(C3CC3)nc3cc(Cl)c(Cl)cc32)o1`: the IC50 was determined as 1.34 µM. Turning to `CN(C)c1ccc(/C=N/NC(=O)Cn2c(C3CC3)nc3cc(Cl)c(Cl)cc32)cc1`, the IC50 was found to be 1.49 µM. Take `CCn1c(S)nnc1Cn1c(C2CC2)nc2cc(Cl)c(Cl)cc21`: the IC50 came to 0.38 µM. `COC(=O)Cn1c(C2CC2)nc2cc(Cl)c(Cl)cc21`: the IC50 was 1.12 µM.

Consider `CCNC(=S)NNC(=O)Cn1c(C2CC2)nc2cc(Cl)c(Cl)cc21`, for which the IC50 turned out to be 0.28 µM. Consider `O=C(Cn1c(C2CC2)nc2cc(Cl)c(Cl)cc21)N/N=C/c1cc(Cl)ccc1O`, for which the IC50 came out at 0.15 µM. On to `O=C(Cn1c(C2CC2)nc2cc(Cl)c(Cl)cc21)N/N=C/c1ccc(F)c(Br)c1`, for which the IC50 stood at 0.06 µM. Then `O=C(Cn1c(C2CC2)nc2cc(Cl)c(Cl)cc21)N/N=C/c1ccccc1`, with 2.07 µM; and `CNC(=S)NNC(=O)Cn1c(C2CC2)nc2cc(Cl)c(Cl)cc21`, with 0.05 to 0.06 µM. Take `O=C(Cn1c(C2CC2)nc2cc(Cl)c(Cl)cc21)N/N=C/c1ccc(Cl)cc1`: the IC50 came out at 0.29 µM. Then `Cn1c(S)nnc1Cn1c(C2CC2)nc2cc(Cl)c(Cl)cc21`, with 0.17 µM; and `NC(N)=S` [THIOUREA], with 0.56 µM.
